US20250214977A1, “STAT6 INHIBITORS AND USES THEREOF” (Kymera Therapeutics, Inc., priority 2024, published 2025)

Test system: Phosphorylation of STAT6 in human A549 cells
Assay: Phosphorylated STAT6 (pSTAT6) flow cytometry assay in human A549 cells
Assay type: cell-based
Settings: read-out: STAT6 IL4 pSTAT6 assay in A549 cells: Average IC50
Excerpt: Example 3. Phosphorylated STAT6 (pSTAT6) Flow Cytometry Assay in Human A549 Cells
Phosphorylation of STAT6 in human A549 cells was quantitatively measured using flow cytometry technology.

SMILES | IC50 [nM]
Cc1cc(C)c(-c2cc(C3=CCCN(C(=O)CCn4ccnn4)C3)cc3cc(C(=O)N(C)C)oc23)cc1C [Example I-856] | < 100
COc1ccccc1-c1cc(C2=CCCN(C(=O)CCn3ccnn3)C2)c(F)c2[nH]c(C(=O)N3CCN(Cc4ccncc4)CC3)cc12 [Example I-858] | < 100
COc1ccccc1-c1cc(C2=CCCN(C(=O)CCn3ccnn3)C2)c(F)c2[nH]c(C(=O)N3CCN(c4ccc5n[nH]cc5c4)CC3)cc12 [Example I-859] | < 100
COc1ccccc1-c1cc(C2=CCCN(C(=O)CCn3ccnn3)C2)c(F)c2[nH]c(C(=O)N3CCN(c4ccc(C)cc4)CC3)cc12 [Example I-860] | 100 to 1000
COc1ccccc1-c1cc(C2=CCCN(C(=O)CCn3ccnn3)C2)c(F)c2[nH]c(C(=O)N3CCN(c4ccccn4)CC3)cc12 [Example I-862] | < 100
COc1ccccc1-c1cc(C2=CCCN(C(=O)CCn3ccnn3)C2)c(F)c2[nH]c(C(=O)N3CCN(c4ncccn4)CC3)cc12 [Example I-863] | < 100
COc1ccccc1-c1cc(C2=CCCN(C(=O)CCn3ccnn3)C2)c(F)c2[nH]c(C(=O)N3CCN(C(=O)N(C)C)CC3)cc12 [Example I-866] | < 100
COc1ccccc1-c1cc(C2=CCCN(C(=O)CCn3ccnn3)C2)c(F)c2[nH]c(C(=O)N3CCN(c4ccc(O)cc4)CC3)cc12 [Example I-867] | < 100
COc1ccccc1-c1cc(C2=CCCN(C(=O)CCn3ccnn3)C2)c(F)c2[nH]c(C(=O)N3CCN(Cc4ccc(Cl)cc4)CC3)cc12 [Example I-868] | 100 to 1000
CN(C)C(=O)c1cc2cc(C3=CCCN(C(=O)CCn4ccnn4)C3)cc(-c3ccc4c(c3)NC(=O)C4)c2o1 [Example I-869] | < 100
CN(C)C(=O)c1cc2cc(C3=CCCN(C(=O)CCn4ccnn4)C3)cc(NCc3cccc4ncccc34)c2o1 [Example I-871] | < 100
CN(C)C(=O)c1cc2cc(C3=CCCN(C(=O)CCn4ccnn4)C3)cc(NCc3ccc(F)cc3)c2o1 [Example I-872] | 100 to 1000
CN(C)C(=O)c1cc2cc(C3=CCCN(C(=O)CCn4ccnn4)C3)cc(NCC3CC(F)(F)C3)c2o1 [Example I-873] | < 100
CN(C)C(=O)c1cc2cc(C3=CCCN(C(=O)CCn4ccnn4)C3)cc(NC3CCCC3)c2o1 [Example I-874] | 100 to 1000
COc1ccccc1-c1cc(C2=CCCN(C(=O)CCn3ccnn3)C2)c(F)c2[nH]c(C(=O)N3CCN(c4cc(C#N)ccn4)CC3)cc12 [Example I-875] | < 100
CN(C)C(=O)c1cc2cc(C3=CCCN(C(=O)CCn4ccnn4)C3)cc(NCc3ccc(C(F)(F)F)cc3)c2o1 [Example I-877] | 100 to 1000
CN(C)C(=O)c1cc2cc(C3=CCCN(C(=O)CCn4ccnn4)C3)cc(NCc3ccccc3C3CC3)c2o1 [Example I-878] | < 100
COc1ncccc1-c1cc(C2=CCCN(C(C)=O)C2)c(F)c2[nH]c(C(=O)N(C)C)cc12 [Example I-879] | < 100
COc1c(F)cccc1-c1cc(C2=CCCN(C(C)=O)C2)c(F)c2[nH]c(C(=O)N(C)C)cc12 [Example I-881] | 100 to 1000
CC(=O)N1CCC=C(c2cc(-c3ccc4cnn(C)c4c3)c3cc(C(=O)N(C)C)[nH]c3c2F)C1 [Example I-882] | 100 to 1000

SMILES | IC50 [nM]
CC(=O)N1CCC=C(c2cc(-c3ccc4n[nH]c(C)c4c3)c3cc(C(=O)N(C)C)[nH]c3c2F)C1 [Example I-883] | 100 to 1000
CC(=O)N1CCC=C(c2cc(-c3cc(C#N)ccc3C)c3cc(C(=O)N(C)C)[nH]c3c2F)C1 [Example I-884] | 100 to 1000
CC(=O)N1CCC=C(c2cc(-c3ccc(C)nc3)c3cc(C(=O)N(C)C)[nH]c3c2F)C1 [Example I-885] | 100 to 1000
CC(=O)N1CCC=C(c2cc(-c3ccc(C)cc3O)c3cc(C(=O)N(C)C)[nH]c3c2F)C1 [Example I-886] | 100 to 1000
CC(=O)N1CCC=C(c2cc(-c3ccc4cncnc4c3)c3cc(C(=O)N(C)C)[nH]c3c2F)C1 [Example I-887] | 100 to 1000
CC(=O)N1CCC=C(c2cc(-c3ccc(C(F)(F)F)cc3O)c3cc(C(=O)N(C)C)[nH]c3c2F)C1 [Example I-888] | 100 to 1000
CC(=O)N1CCC=C(c2cc(-c3ccccc3C)c3cc(C(=O)N(C)C)[nH]c3c2F)C1 [Example I-890] | 100 to 1000
CC(=O)N1CCC=C(c2cc(-c3ccc(F)cc3O)c3cc(C(=O)N(C)C)[nH]c3c2F)C1 [Example I-891] | 100 to 1000
CN(C)C(=O)c1cc2cc(C3=CCCN(C(=O)CCn4ccnn4)C3)cc(NCc3ccc(C(F)(F)F)nc3)c2o1 [Example I-893] | < 100
Cc1cc(CNc2cc(C3=CCCN(C(=O)CCn4ccnn4)C3)cc3cc(C(=O)N(C)C)oc23)n(C)n1 [Example I-894] | 100 to 1000
CN(C)C(=O)c1cc2cc(C3=CCCN(C(=O)CCn4ccnn4)C3)cc(NCc3ccc(C#N)cc3)c2o1 [Example I-895] | < 100
CN(C)C(=O)c1cc2cc(C3=CCCN(C(=O)CCn4ccnn4)C3)cc(NC[C@@H]3CCC(=O)N3C)c2o1 [Example I-896] | 100 to 1000
CC(=O)N1CCC=C(c2cc(-c3cnc4[nH]cc(C)c4c3)c3cc(C(=O)N(C)C)[nH]c3c2F)C1 [Example I-897] | 100 to 1000
COc1ccccc1-c1cc(C2=CCCN(C(=O)CCn3ccnn3)C2)c(F)c2[nH]c(C(=O)N3CCC(N(C)C4CC4)C3)cc12 (stereo not drawn) [Example I-898] | < 100
COc1ccccc1-c1cc(C(=O)N(C)C)cc2cc(C3=CCCN(C(=O)CCn4ccnn4)C3)n(CC3CC3)c12 [Example I-899] | < 100
COc1ccnc(N2CCN(C(=O)c3cc4c(-c5ccccc5OC)cc(C5=CCCN(C(=O)CCn6ccnn6)C5)c(F)c4[nH]3)CC2)c1 [Example I-900] | < 100
COc1ccccc1-c1cc(C2=CCCN(C(=O)CCn3ccnn3)C2)c(F)c2[nH]c(C(=O)N3CCc4cccc(OC)c4C3)cc12 [Example I-901] | < 100
COc1cccnc1N1CCN(C(=O)c2cc3ccc(C4=CCCN(C(C)=O)C4)c(F)c3[nH]2)CC1 [Example I-902] | 1000 to 10000
CCOC(=O)c1cc2ccc(N3CCN(C(=O)c4cc5c(-c6ccccc6OC)cc(C6=CCCN(C(=O)CCn7ccnn7)C6)c(F)c5[nH]4)CC3)cn2c1 [Example I-903] | 100 to 1000
COc1ccccc1-c1cc(C2=CCCN(C(=O)CCn3ccnn3)C2)c(F)c2[nH]c(C(=O)N3CCN(c4nccc(-c5ccccc5)n4)CC3)cc12 [Example I-904] | 100 to 1000

SMILES | IC50 [nM]
COc1ccccc1-c1cc(C2=CCCN(C(=O)CCn3ccnn3)C2)c(F)c2[nH]c(C(=O)N3CCN(c4cn(C)c(=O)c5ccccc45)CC3)cc12 [Example I-905] | < 100
COc1ccccc1-c1cc(C2=CCCN(C(=O)CCn3ccnn3)C2)c(F)c2[nH]c(C(=O)N3CCN(c4nccc(-c5cn(C)c6ccccc56)n4)CC3)cc12 [Example I-906] | < 100
COc1ccccc1-c1cc(C2=CCCN(C(=O)CCn3ccnn3)C2)c(F)c2[nH]c(C(=O)N3CCN(c4cc(F)c(F)c5ccc(C)nc45)CC3)cc12 [Example I-907] | < 100
COc1ccccc1-c1cc(C2=CCCN(C(=O)CCn3ccnn3)C2)c(F)c2[nH]c(C(=O)N3CCN(c4ccnnc4O)CC3)cc12 [Example I-908] | < 100
COc1ccccc1-c1cc(C2=CCCN(C(=O)CCn3ccnn3)C2)c(F)c2[nH]c(C(=O)N3CCN(c4cc(C)c5ncnn5c4)CC3)cc12 [Example I-909] | < 100
COc1ccccc1-c1cc(C2=CCCN(C(=O)CCn3ccnn3)C2)c(F)c2[nH]c(C(=O)N3CCN(c4cnc(SC)n5cnnc45)CC3)cc12 [Example I-910] | < 100
COc1ccccc1-c1cc(C2=CCCN(C(=O)CCn3ccnn3)C2)c(F)c2[nH]c(C(=O)N3CCN(C)C(c4ccccc4)C3)cc12 (stereo not drawn) [Example I-911] | 100 to 1000
COc1ccccc1-c1cc(C2=CCCN(C(=O)CCn3ccnn3)C2)c(F)c2[nH]c(C(=O)N3CC4CN(c5ncccc5OC)CC4C3)cc12 (stereo not drawn) [Example I-912] | 100 to 1000
COc1ccccc1-c1cc(C2=CCCN(C(=O)CCn3ccnn3)C2)c(F)c2[nH]c(C(=O)N3CCN(c4c(C)cccc4OC)CC3)cc12 [Example I-913] | 100 to 1000
COc1ccccc1-c1cc(C2=CCCN(C(=O)CCn3ccnn3)C2)c(F)c2[nH]c(C(=O)N3CCN(c4ccnc5c4CC(=O)N5)CC3)cc12 [Example I-914] | < 100
COc1ccccc1-c1cc(C2=CCCN(C(=O)CCn3ccnn3)C2)c(F)c2[nH]c(C(=O)N3CCN(c4cn5ccnc5cc4C)CC3)cc12 [Example I-915] | < 100
COc1ccccc1-c1cc(C2=CCCN(C(=O)CCn3ccnn3)C2)c(F)c2[nH]c(C(=O)N3CCN(c4nc5ccccc5c5ccccc45)CC3)cc12 [Example I-916] | 100 to 1000
COc1ccccc1-c1cc(C2=CCCN(C(=O)CCn3ccnn3)C2)c(F)c2[nH]c(C(=O)N3CCN(c4cc(OC)c5ccnn5c4)CC3)cc12 [Example I-917] | < 100
COc1ccccc1-c1cc(C2=CCCN(C(=O)CCn3ccnn3)C2)c(F)c2[nH]c(C(=O)N3CCN(c4ccc5c(c4)C=NCC5)CC3)cc12 [Example I-918] | < 100
COc1ccccc1-c1cc(C2=CCCN(C(=O)CCn3ccnn3)C2)c(F)c2[nH]c(C(=O)N3CCN(c4ccn5nc(C)nc5c4)CC3)cc12 [Example I-919] | < 100
COc1ccccc1-c1cc(C2=CCCN(C(=O)CCn3ccnn3)C2)c(F)c2[nH]c(C(=O)N3CCN(c4ncnc5ncn(C)c45)CC3)cc12 [Example I-920] | < 100
COc1ccccc1-c1cc(C2=CCCN(C(=O)CCn3ccnn3)C2)c(F)c2[nH]c(C(=O)N3CCN(c4cc(C)cc5c[nH]nc45)CC3)cc12 [Example I-921] | 100 to 1000
COc1ccccc1-c1cc(C2=CCCN(C(=O)CCn3ccnn3)C2)c(F)c2[nH]c(C(=O)N3CCN(c4ccc(OC)c(OC)c4OC)CC3)cc12 [Example I-922] | 100 to 1000
COc1ccccc1-c1cc(C2=CCCN(C(=O)CCn3ccnn3)C2)c(F)c2[nH]c(C(=O)N3CCN(c4nc(C)nc5ccccc45)CC3)cc12 [Example I-923] | < 100
COc1ccccc1-c1cc(C2=CCCN(C(=O)CCn3ccnn3)C2)c(F)c2[nH]c(C(=O)N3CCN(c4cc5cccnc5cc4F)CC3)cc12 [Example I-924] | < 100
